Experimental data published in patent publication US20100267697A1, “ION CHANNEL MODULATORS” (Wyeth, priority 2006, published 2010).
Where two headings read alike, the source gives them in different places.

Biological target: T1, Cav2.2 (Homo sapiens, UniProt Q00975)
T1 construct: expressed in transfected cells; host or cells: HEK-293T/17 (transient, FuGENE 6)
Assay: HEK assay (whole-cell patch clamp, transiently transfected HEK-293T/17 cells, pulses P1 and P5)
Assay type: cell-based
Settings: holding potential −100 mV
Procedure: HEK-293T/17 cells were transiently transfected in a similar manner as described in FuGENE 6 Package Insert Version 7, April 2002, Roche Applied Science, Indianapolis, Ind. The cells were plated at 2.5×10^5 cells in 2 mL in a 6-well plate, incubated for one night, and achieved a ˜30-40% confluence. In a small sterile tube, sufficient serum-free medium was added as diluent for FuGENE Transfection Reagent (Roche Applied Science, Indianapolis, Ind.) to a total volume of 100 μL. To this medium was added 3 μL of FuGENE 6 Reagent. The mixture was tapped gently to mix. To the prediluted FuGENE 6 Reagent was added 2 μg of DNA solution (0.8-2.0 μg/μL). The DNA/Fugene 6 mixture was gently pipeted to mix the contents and incubated for about 15 minutes at room temperature. The complex mixture was then added to the HEK-293T/17 cells, distributed around the well, and swirled to ensure even dispersal. The cells were returned to the incubator for 24 hours. The transfected cells were then replated at density 2.5×10^5 in a 35 mm dish with 5 glass coverslips and grew in low serum (1%) media for 24 hours. Coverslips with isolated cells were then transferred into a chamber, and calcium channel (e.g., L-type, N-type, etc.) current or other currents for counter screening were recorded from the transiently transfected HEK-293T/17 cells.
The whole-cell voltage clamp configuration of the patch clamp technique was employed to evaluate voltage-dependent calcium currents essentially as described by Thompson and Wong (1991), J. Physiol., 439: 671-689, the entire disclosure of which is herein incorporated by reference. To record calcium channel (e.g., L-type, N-type, etc.) currents for evaluation of inhibitory potency of compounds (steady-state concentration-response analysis), five pulses of 20-30 ms voltage steps to about +10 mV (the peak of the current voltage relationship) were delivered at five Hz every 30 second from a holding potential at −100 mV. In order to obtain an estimate of the degree of use-dependent block of the test compounds, IC50 values were determined at the first and fifth pulse of the train (P1 and P5, respectively, in Table 2). Compound evaluations were carried out essentially as described by Sah D. W. and Bean B. P. (1994), Mol. Pharmacol., 45:84-92, the entire disclosure of which is herein incorporated by reference.

[1] = fifth pulse (P5) of 5 Hz train, read-out: HEK Cav2.2 P5 IC50
[2] = first pulse (P1) of 5 Hz train, read-out: HEK Cav2.2 P1 IC50

T1 sequence (Q00975 whole entry): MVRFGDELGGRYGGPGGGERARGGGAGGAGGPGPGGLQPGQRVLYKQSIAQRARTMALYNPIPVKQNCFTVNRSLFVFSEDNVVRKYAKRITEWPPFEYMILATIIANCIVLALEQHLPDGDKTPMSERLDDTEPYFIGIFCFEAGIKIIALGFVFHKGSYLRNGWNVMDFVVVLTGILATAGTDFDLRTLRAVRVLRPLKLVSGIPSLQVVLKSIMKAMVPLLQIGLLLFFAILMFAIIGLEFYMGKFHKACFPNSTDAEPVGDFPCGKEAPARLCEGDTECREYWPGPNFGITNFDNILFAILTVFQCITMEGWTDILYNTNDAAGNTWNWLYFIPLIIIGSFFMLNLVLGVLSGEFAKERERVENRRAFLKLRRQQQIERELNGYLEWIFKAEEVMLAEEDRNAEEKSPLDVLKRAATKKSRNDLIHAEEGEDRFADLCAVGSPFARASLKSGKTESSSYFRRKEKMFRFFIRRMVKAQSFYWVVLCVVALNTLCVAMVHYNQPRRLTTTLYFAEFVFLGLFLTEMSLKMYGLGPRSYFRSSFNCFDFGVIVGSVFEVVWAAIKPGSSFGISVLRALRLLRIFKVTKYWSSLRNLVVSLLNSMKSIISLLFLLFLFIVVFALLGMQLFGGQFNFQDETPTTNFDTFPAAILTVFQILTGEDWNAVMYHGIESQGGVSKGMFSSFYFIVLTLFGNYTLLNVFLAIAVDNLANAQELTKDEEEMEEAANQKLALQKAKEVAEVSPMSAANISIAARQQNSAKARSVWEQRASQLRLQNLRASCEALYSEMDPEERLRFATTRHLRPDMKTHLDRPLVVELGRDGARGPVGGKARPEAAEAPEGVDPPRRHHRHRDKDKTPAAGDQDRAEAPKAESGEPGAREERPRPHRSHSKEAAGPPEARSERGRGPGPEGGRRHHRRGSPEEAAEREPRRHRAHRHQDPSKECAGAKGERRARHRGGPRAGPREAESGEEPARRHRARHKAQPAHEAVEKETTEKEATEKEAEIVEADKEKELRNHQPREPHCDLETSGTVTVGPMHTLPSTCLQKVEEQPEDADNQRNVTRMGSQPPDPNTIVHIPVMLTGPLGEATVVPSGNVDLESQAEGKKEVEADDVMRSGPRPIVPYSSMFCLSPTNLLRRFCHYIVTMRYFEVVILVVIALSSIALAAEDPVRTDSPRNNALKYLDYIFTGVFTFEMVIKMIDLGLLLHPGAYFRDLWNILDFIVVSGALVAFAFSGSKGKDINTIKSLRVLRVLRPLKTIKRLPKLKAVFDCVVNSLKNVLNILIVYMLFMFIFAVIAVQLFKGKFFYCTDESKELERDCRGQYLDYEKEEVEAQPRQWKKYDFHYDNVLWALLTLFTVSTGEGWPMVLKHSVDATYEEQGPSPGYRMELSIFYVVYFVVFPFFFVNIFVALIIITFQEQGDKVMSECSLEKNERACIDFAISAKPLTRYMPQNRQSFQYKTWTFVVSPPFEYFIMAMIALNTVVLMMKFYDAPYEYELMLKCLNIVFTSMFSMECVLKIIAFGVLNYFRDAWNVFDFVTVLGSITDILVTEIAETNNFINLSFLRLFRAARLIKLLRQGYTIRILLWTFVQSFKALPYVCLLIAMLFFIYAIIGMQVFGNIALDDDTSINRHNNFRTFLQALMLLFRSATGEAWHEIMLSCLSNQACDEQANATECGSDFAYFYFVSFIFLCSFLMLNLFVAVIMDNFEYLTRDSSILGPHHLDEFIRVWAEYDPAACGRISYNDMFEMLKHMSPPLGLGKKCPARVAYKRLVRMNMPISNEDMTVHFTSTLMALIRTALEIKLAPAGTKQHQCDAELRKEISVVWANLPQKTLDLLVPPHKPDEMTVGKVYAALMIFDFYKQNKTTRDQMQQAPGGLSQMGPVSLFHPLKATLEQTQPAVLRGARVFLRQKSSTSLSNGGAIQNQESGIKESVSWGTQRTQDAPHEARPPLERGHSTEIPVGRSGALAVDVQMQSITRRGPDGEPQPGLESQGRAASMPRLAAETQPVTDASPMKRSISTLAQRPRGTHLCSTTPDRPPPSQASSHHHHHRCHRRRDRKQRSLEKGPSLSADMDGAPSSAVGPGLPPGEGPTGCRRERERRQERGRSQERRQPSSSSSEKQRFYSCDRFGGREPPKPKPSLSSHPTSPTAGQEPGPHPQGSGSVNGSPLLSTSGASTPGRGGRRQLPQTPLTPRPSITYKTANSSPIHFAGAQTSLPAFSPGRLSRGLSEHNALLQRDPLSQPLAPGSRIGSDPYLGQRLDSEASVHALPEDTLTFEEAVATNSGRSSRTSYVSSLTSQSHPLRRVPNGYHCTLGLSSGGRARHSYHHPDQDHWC
T1 sequence (P54284 whole entry partner): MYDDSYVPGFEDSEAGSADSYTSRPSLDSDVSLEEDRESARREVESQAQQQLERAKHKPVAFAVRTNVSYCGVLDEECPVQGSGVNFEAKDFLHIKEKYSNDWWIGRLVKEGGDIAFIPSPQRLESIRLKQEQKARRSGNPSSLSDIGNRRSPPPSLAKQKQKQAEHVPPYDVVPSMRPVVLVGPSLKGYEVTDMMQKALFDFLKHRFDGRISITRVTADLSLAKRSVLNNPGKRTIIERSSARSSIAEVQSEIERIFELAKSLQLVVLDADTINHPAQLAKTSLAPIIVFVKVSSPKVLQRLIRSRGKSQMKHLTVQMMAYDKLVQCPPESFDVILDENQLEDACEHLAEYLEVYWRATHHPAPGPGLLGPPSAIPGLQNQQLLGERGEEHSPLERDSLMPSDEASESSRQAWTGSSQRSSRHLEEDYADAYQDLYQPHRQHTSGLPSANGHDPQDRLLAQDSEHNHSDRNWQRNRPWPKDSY
T1 sequence (P54289 25-946 partner limits assumed): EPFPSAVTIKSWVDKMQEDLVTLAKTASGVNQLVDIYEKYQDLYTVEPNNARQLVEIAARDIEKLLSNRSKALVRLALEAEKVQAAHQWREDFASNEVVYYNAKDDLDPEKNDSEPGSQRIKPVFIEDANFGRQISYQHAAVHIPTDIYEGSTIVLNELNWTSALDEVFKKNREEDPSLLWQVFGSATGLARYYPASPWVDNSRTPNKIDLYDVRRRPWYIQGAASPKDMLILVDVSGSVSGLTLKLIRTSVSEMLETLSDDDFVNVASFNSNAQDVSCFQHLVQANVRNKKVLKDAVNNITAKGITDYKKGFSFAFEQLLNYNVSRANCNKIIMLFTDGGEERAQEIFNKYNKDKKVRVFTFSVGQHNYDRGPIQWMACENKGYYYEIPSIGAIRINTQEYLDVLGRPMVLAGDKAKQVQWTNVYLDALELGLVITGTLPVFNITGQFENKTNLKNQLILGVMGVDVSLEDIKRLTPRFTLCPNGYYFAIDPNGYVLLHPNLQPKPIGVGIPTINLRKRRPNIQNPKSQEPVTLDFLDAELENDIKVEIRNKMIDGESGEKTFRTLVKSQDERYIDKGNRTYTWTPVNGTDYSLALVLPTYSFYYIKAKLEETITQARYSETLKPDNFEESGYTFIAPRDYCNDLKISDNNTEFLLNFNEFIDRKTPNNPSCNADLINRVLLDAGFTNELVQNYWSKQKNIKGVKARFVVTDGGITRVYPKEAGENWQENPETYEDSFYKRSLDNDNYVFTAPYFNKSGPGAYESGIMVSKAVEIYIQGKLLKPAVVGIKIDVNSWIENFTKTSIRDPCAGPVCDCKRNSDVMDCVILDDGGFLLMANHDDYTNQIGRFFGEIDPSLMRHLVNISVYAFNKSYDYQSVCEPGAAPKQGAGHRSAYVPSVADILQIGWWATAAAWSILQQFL
T1 sequence (P54289 947-1103 partner limits assumed): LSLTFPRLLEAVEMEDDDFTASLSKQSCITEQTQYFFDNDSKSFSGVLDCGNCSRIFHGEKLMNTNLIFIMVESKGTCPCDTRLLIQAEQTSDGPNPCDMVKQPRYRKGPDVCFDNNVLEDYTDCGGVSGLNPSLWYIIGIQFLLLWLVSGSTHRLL

Compound | IC50 [1] | IC50 [2]
CC(C)c1cccc(N(Cc2csc(N3CCCCC3)n2)C(=O)C(C)(C)C)c1 [Compound 71, N-(3-Isopropyl-phenyl)-2,2-dimethyl-N-(2-piperidin-1-yl-thiazol-4-ylmethyl)-propionamide] | 500 nM | 2400 nM
CN(c1ccc(CN(C(=O)C(C)(C)C)c2ccc(F)cc2)cn1)C1CC1 [Compound 74, N-[6-(Cyclopropyl-methyl-amino)-pyridin-3-ylmethyl]-N-(4-fluorophenyl)-2,2-dimethyl-propionamide] | 2800 nM | 12800 nM
CN1CCN(c2ncc(CN(C(=O)C(C)(C)C)c3ccc(F)cc3)s2)CC1 [Compound 76, N-(4-Fluorophenyl)-2,2-dimethyl-N-[2-(4-methyl-piperazin-1-yl)-thiazol-5-ylmethyl]-propionamide] | 5200 nM | 29000 nM
CC(C)(C)C(=O)N(Cc1csc(N2CCCC2)n1)c1ccc(F)cc1 [Compound 77, N-(4-Fluorophenyl)-2,2-dimethyl-N-(2-pyrrolidin-1-yl-thiazol-4-ylmethyl)-propionamide] | 2600 nM | 19100 nM
CC(C)(C)C(=O)N(Cc1ccc(NC2CC2)nc1)c1ccc(F)cc1 [Compound 78, N-(6-Cyclopropylamino-pyridin-3-ylmethyl)-N-(4-fluorophenyl)-2,2-dimethyl-propionamide] | 7200 nM | 14200 nM
CN(c1ccc(F)cc1)c1nc(CN(C(=O)C(C)(C)C)c2ccc(F)cc2)cs1 [Compound 79, N-(4-Fluorophenyl)-N-{2-[(4-fluorophenyl)-methyl-amino]-thiazol-4-ylmethyl}-2,2-dimethyl-propionamide] | 100 nM | 300 nM
COc1ccc(N(C)c2nc(CN(C(=O)C(C)(C)C)c3ccc(F)cc3)cs2)cc1 [Compound 80, N-(4-Fluorophenyl)-N-{2-[(4-methoxy-phenyl)-methyl-amino]-thiazol-4-ylmethyl}-2,2-dimethyl-propionamide] | 600 nM | 2400 nM
CN(c1ccc(F)cc1)c1nc(CN(C(=O)C(C)(C)C)c2ccc(F)cn2)cs1 [Compound 82, N-{2-[(4-Fluorophenyl)-methyl-amino]-thiazol-4-ylmethyl}-N-(5-fluoro-pyridin-2-yl)-2,2-dimethyl-propionamide] | 2200 nM | 12100 nM
CN(C)c1ccc(N(Cc2csc(N3CCCCC3)n2)C(=O)C(C)(C)C)cc1 [Compound 86, N-(4-Dimethylamino-phenyl)-2,2-dimethyl-N-(2-piperidin-1-yl-thiazol-4-ylmethyl)-propionamide] | 3100 nM | 12600 nM
CCN(CC)c1ccc(N(Cc2csc(N(C)c3ccc(F)cc3)n2)C(=O)C(C)(C)C)cc1 [Compound 88, N-(4-Diethylamino-phenyl)-N-{2-[(4-fluorophenyl)-methyl-amino]-thiazol-4-ylmethyl}-2,2-dimethyl-propionamide] | 100 nM | 400 nM
CCN(CC)c1ccc(CN(C(=O)C(C)(C)CC)c2ccc(N(C)C)cc2)cc1 [Compound 90, N-(4-Diethylaminobenzyl)-N-(4-dimethylamino-phenyl)-2,2-dimethyl-butyramide] | 800 nM | 2200 nM
CCN(c1cccc(CN(C(=O)C(C)(C)C)c2ccc(F)cc2)n1)C1CC1 [Compound 92, N-[6-(Cyclopropyl(ethyl)amino)-pyridin-2-ylmethyl]-N-(4-fluorophenyl)-2,2-dimethyl-propionamide] | 800 nM | 1800 nM
CCN(CC)c1nc(CN(C(=O)CCC(C)C)c2ccc(N(C)C)cc2)cs1 [Compound 95, 4-Methyl-pentanoic acid (2-diethylamino-thiazol-4-ylmethyl)-(4-dimethylamino-phenyl)-amide] | 2300 nM | 7900 nM
CCN(CC)c1nc(CN(C(=O)C(C)(C)CC)c2ccc(N(C)C)cc2)cs1 [Compound 96, N-(2-Diethylamino-thiazol-4-ylmethyl)-N-(4-dimethyalmino-phenyl)-2,2-dimethyl-butyramide] | 1100 nM | 4500 nM
CCN(CC)c1ccc(CN(C(=O)CCC(C)C)c2ccc(NC)cc2)cc1 [Compound 99, 4-Methyl-pentanoic acid (4-Diethylaminobenzyl)-(4-methylamino-phenyl)-amide] | < 100 nM | 4300 nM
CC(C)(C)OC(=O)N(Cc1csc(-c2ccncc2)n1)c1ccc(F)cc1 [Compound 101, (4-Fluorophenyl)-(2-pyridin-4-yl-thiazol-4-ylmethyl)-carabamic acid tert-butyl ester] | 8400 nM | –
O=C(C1CC1)N(Cc1csc(N2CCCCC2)n1)c1ccc(F)cc1 [Compound 107, Cyclopropanecarboxylic acid (4-fluorophenyl)-(2-piperidin-1-yl-thiazol-4-ylmethyl)-amide] | 2500 nM | 11100 nM
O=C(C1CCCO1)N(Cc1ccc(N2CCN(c3ccccn3)CC2)nc1)c1ccc(F)cc1 (stereo not shown) [Compound 109, Tetrahydro-furan-2-carboxylic acid (4-fluorophenyl)-[6-(4-pyridin-2-yl-piperazin-1-yl)-pyridin-3-ylmethyl]-amide] | 2600 nM | 13900 nM
CN(c1ccc(F)cc1)c1nc(CN(C(=O)C2CCCN2C)c2ccc(F)cc2)cs1 (stereo not shown) [Compound 114, 1-Methyl-pyrrolidine-2-carboxylic acid (4-fluroophenyl)-{2-[(4-fluorophenyl)-methyl-amino]-thiazol-4-ylmethyl]-amide] | 2100 nM | 4800 nM

The remaining molecules from weak to strong by IC50 [1], led by results:

IC50 [1] | IC50 [2] | Compound
11000 nM | 47300 nM | CC(C)(C)C(=O)N(Cc1csc(-c2ccncc2)n1)c1ccc(F)cc1 [Compound 75, N-(4-Fluorophenyl)-2,2-dimethyl-N-(2-pyridin-4-yl-thiazol-4-ylmethyl)-propionamide]
9600 nM | – | CN1CCN(c2ncc(CN(C(=O)OC(C)(C)C)c3ccc(F)cc3)s2)CC1 [Compound 102, (4-Fluorophenyl)-[2-(4-methyl-piperazin-1-yl)-thiazol-5-ylmethyl]-carbamic acid tert-butyl ester]
8500 nM | 33800 nM | CCC(C)(C)C(=O)N(Cc1csc(N2CCOCC2)n1)c1ccc(F)cc1 [Compound 73, N-(4-Fluorophenyl)-2,2-dimethyl-N-(2-morpholin-4-yl-thiazol-4-ylmethyl)-butyramide]
4300 nM | 8000 nM | CCN(c1ccc(CN(C(=O)C(C)(C)C)c2ccc(N(C)C)cc2)cn1)C1CC1 [Compound 100, N-[6-(Cycloproyl(ethyl)amino)-pyridin-3-ylmethyl]-N-(4-dimethylamino-phenyl)-2,2-dimethyl-propionamide]
3900 nM | 14100 nM | O=C(C1CCCCC1)N(Cc1csc(N2CCOCC2)n1)c1ccc(F)cc1 [Compound 108, Cyclohexanecarboxylic acid (4-fluorophenyl)-(2-morpholin-4-yl-thiazol-4-ylmethyl)-amide]
1900 nM | 5200 nM | CCN(CC)c1ccc(CN(C(=O)CCC(C)C)c2ccc(N)cc2)cc1 [Compound 98, 4-Methyl-pentanoic acid (4-aminophenyl)-(4-Diethylaminobenzyl)-amide]
1400 nM | 4200 nM | CCN(c1ccc(CN(C(=O)C(C)(C)C)c2ccc(F)cc2)cc1)C1CC1 [Compound 87, N-[4-(Cyclopropyl(ethyl)amino)-benzyl]-N-(4-fluorophenyl)-2,2-dimethyl-propionamide]
700 nM | 1800 nM | CCN(CC)c1ccc(CN(C(=O)/C=C/C(C)C)c2ccc(N(C)C)cc2)cc1 [Compound 94, 4-Methyl-pent-2-enoic acid (4-Diethylaminobenzyl)-(4-dimethylamino-phenyl)-amide]
600 nM | 1000 nM | CCN(CC)c1ccc(CN(C(=O)CCC(C)C)c2ccc(N(C)C)cc2)cc1 [Compound 91, 4-Methyl-pentanoic acid (4-Diethylaminobenzyl)-(4-dimethylamino-phenyl)-amide]
400 nM | 1100 nM | CCN(CC)c1ccc(N(Cc2cccc(N(CC)C3CC3)c2)C(=O)C(C)(C)C)cc1 [Compound 97, N-[3-(Cyclopropyl(ethyl)amino)-benzyl]-N-(4-diethylamino-phenyl)-2,2-dimethyl-propionamide]
300 nM | 1100 nM | CN(C)c1ccc(N(Cc2csc(N(C)c3ccc(C(F)(F)F)cc3)n2)C(=O)C(C)(C)C)cc1 [Compound 89, N-(4-Dimethylamino-phenyl)-2,2-dimethyl-N-{2-[methyl-(4-trifluoromethyl-phenyl)-amino]-thiazol-4-ylmethyl}-propionamide]
